Legend:
ATR/ATRIP = ATR/ATRIP (Homo sapiens (Human), UniProt Q13535); test: ATR/ATRIP kinase assay (TR-FRET, p53 Ser15 phosphorylation); type: biochemical; conditions: 0.5 μM ATP, 50 nM p53
Description: ATR/ATRIP Kinase Assay—Measurement of ATR/ATRIP Inhibition
The IC50 value was determined by an ATR/ATRIP enzymatic assay. The assay comprises two steps: the enzymatic reaction and the detection step. First, a mixture of ATR/ATRIP protein (Ataxia Telangiectasia and Rad3-related protein/ATR interacting protein), the compound in question at different concentrations, p53 as substrate protein and adenosine triphosphate (ATP) are incubated in assay buffer. ATR phosporylates p53 at Ser15 and other residues. The amount of phosphorylated p53 is then detected using specific antibodies and the TR-FRET assay technology.
In detail: The ATR/ATRIP enzymatic assay is performed as a TR-FRET-(HTRF™, Cisbio Bioassays) based 384-well assay. In a first step, purified human recombinant ATR/ATRIP (human ATR, full length, GenBank ID: NM_001184.3, and human ATRIP, full length, GenBank ID AF451323.1, co-expressed in a mammalian cell line) is incubated in assay buffer for 15 minutes at 22° C. with test compound at different concentrations or without test compound (as a negative control). The assay buffer contains 25 mM HEPES pH 8.0, 10 mM Mg(CH3COO)2, 1 mM MnCl2, 0.1% BSA, 0.01% Brij® 35, and 5 mM dithiothreitol (DTT). An Echo 555 (Labcyte) is used for dispensing of compound solutions. Then, in a second step, purified human recombinant cmyc-tagged p53 (human p53, full length, GenBank ID: BC003596, expressed in Sf21 insect cells) and ATP are added and the reaction mixture is incubated for 25-35 minutes, typically 25 minutes, at 22° C. The pharmacologically relevant assay volume is 5 μl. The final concentrations in the assay during incubation of the reaction mixture are 0.3-0.5 nM, typically 0.3 nM, ATR/ATRIP, 50 nM p53, and 0.5 μM ATP. The enzymatic reaction is stopped by the addition of EDTA. The generation of phosphorylated p53 as a result of the ATR mediated reaction in the presence of ATP is detected by using specific antibodies [labeled with the fluorophores europium (Eu) as donor and d2 as acceptor (Cisbio Bioassays)] enabling FRET. For this purpose, 2 μl of antibody-containing stop solution (12.5 mM HEPES pH 8.0, 125 mM EDTA, 30 mM sodium chloride, 300 mM potassium fluoride, 0.006% Tween-20, 0.005% Brij® 35, 0.21 nM anti-phospho-p53(Ser15)-Eu antibody, 15 nM anti-cmyc-d2 antibody) are added to the reaction mixture. Following signal development for 2 h the plates are analyzed in an EnVision (PerkinElmer) microplate reader using the TRF mode with laser excitation. Upon excitation of the donor europium at 340 nm the emitted fluorescence light of the acceptor d2 at 665 nm as well as from the donor Eu at 615 nm are measured. The amount of phosphorylated p53 is directly proportional to the ratio of the amounts of emitted light i.e. the ratio of the relative fluorescence units (rfu) at 665 nm and 615 nm. Data are processed employing the Genedata Screener software. In particular, IC50 values are determined in the usual manner by fitting a dose-response curve to the data points using nonlinear regression analysis. • IC50=half maximal inhibitory concentration • ATP=Adenosine triphosphate • TR-FRET=Time-Resolved Fluorescence Resonance Energy Transfer • HTRF®=Homogeneous Time Resolved Fluorescence • HEPES=2-(4-(2-Hydroxyethyl)-1-piperazinyl)-ethanesulfonic acid • Mg(CH3COO)2=Magnesium acetate • MnCl2=Manganese(II)-chloride • BSA=Bovine Serum Albumin • EDTA=Ethylendiamine Tetraacetate • TRF=Time Resolved Fluorescence pCHK1 Cellular Assay

[1] = test system: phosphorylation of Chk1 (Ser 345) in HT29 colon adenocarcinoma cells; test: pCHK1 cellular assay; type: cell-based; conditions: Homo sapiens, HT-29, hydroxyurea 3 mM, 4 h
From the text: Chk1 kinase acts downstream of ATR and has a key role in DNA damage checkpoint control. Activation of Chk1 involves phosphorylation of Ser317 and Ser345 (regarded as the preferential target for phosphorylation/activation by ATR) and occurs in response to blocked DNA replication and certain forms of genotoxic stress. Phosphorylation at Ser 345 serves to localize Chk1 to the nucleus following checkpoint activation.
This assay measures a decrease in phosphorylation of Chk1 (Ser 345) in HT29 colon adenocarcinoma cells following treatment with compound and hydroxyurea (which promotes fork stalling because of dNTP depletion) and using an immunocytochemical procedure and high content imaging.
For the assay HT29 cells are plated in culture medium (DMEM high Glucose (no phenol red), 2 mM Glutamax, 1 mM Pyruvate, 10% FCS into Greiner 384 well plates, black, μclear #781090 (2500 cells/well/30 μl) and incubated for at least 20 hours at 37° C., 10% CO2 and 90% rH. Diluted test compounds (1 nM-30 μM final) and hydroxyurea (3 mM final) are added simultaneously and cells are incubated for 4 h at 37° C. After fixation/prmeabilisation with 100% MeOH (−20° C. cold) and permeabilisation with 0.2% Triton X-100 a complete immunocytochemical procedure is performed using a specific anti-pChk1 antibody (Cell Signaling, #2348BF) and fluorescently labelled secondary antibody (Alexa Fluor® 488 goat anti-rabbit F(ab′)2 fragment, Invitrogen A11070) and parallel nuclear staining for cell counting.
The nuclear localised pChk1 signal is detected on an ImageXpress Ultra confocal high content reader and reported as % positive cells (nuclei).

Sequence of ATR/ATRIP (Q13535 whole entry): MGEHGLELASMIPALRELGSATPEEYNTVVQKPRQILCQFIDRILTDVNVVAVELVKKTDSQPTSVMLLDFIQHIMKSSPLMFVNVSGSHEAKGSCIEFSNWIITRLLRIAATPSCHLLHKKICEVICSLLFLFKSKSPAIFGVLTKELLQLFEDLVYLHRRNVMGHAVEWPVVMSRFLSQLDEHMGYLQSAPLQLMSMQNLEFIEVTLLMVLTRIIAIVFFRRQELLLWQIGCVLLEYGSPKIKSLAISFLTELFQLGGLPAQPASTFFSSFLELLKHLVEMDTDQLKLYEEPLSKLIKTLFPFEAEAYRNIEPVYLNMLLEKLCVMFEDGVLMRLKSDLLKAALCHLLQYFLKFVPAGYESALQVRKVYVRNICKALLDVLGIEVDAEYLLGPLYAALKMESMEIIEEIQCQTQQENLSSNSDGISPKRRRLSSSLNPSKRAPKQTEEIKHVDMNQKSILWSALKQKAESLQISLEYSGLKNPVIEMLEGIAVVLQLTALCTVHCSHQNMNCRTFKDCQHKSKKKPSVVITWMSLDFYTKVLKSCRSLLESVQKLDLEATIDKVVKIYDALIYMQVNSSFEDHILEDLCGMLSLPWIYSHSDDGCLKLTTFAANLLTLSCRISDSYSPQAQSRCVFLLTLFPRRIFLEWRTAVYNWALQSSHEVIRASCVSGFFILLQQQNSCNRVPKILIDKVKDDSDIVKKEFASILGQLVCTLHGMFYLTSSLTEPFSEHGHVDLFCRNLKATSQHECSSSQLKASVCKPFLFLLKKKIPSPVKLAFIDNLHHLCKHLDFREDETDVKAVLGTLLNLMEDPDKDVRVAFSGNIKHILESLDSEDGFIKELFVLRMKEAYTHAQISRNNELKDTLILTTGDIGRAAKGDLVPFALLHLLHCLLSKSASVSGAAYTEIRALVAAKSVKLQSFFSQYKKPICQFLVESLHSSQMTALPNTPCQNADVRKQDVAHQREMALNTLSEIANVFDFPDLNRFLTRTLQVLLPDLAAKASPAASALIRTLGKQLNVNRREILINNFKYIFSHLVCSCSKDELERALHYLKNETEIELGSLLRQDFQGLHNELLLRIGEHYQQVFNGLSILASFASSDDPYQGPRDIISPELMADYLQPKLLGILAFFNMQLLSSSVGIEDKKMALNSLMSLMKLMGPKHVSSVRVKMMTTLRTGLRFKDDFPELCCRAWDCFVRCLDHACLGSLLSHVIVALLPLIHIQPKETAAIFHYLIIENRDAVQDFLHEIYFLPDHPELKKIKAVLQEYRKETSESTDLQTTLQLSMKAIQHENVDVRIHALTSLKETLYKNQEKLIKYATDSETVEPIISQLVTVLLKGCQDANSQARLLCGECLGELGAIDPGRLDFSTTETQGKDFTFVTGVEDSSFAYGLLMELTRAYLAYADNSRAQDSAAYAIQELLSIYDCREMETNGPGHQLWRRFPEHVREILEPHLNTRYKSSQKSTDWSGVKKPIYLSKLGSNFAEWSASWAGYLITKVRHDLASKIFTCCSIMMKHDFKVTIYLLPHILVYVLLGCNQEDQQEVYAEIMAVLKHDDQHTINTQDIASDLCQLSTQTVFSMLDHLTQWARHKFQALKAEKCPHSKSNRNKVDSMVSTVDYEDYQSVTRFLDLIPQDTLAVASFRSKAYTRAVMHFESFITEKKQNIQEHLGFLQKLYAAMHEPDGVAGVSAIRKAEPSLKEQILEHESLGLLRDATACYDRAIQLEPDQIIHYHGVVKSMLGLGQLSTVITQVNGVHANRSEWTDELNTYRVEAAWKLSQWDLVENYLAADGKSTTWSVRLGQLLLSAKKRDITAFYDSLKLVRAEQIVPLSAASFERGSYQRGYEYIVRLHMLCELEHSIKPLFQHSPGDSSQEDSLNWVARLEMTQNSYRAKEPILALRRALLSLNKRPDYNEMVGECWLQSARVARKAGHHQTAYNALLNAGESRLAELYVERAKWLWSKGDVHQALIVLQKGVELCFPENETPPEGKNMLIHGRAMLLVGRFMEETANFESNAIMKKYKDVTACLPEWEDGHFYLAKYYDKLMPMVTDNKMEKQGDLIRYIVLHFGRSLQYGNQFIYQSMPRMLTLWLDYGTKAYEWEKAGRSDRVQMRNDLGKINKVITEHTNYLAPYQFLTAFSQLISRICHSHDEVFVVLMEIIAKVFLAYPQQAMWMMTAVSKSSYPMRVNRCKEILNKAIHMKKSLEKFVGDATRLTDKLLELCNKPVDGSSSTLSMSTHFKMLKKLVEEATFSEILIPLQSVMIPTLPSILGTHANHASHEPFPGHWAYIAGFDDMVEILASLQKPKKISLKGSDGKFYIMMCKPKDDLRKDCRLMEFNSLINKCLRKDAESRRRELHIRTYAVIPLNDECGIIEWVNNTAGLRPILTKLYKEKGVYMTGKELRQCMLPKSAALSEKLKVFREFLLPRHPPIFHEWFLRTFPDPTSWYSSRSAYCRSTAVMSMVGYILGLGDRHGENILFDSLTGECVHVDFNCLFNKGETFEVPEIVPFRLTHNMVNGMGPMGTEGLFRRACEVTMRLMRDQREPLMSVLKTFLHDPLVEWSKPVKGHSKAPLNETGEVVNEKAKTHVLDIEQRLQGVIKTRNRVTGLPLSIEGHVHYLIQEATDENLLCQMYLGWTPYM
Sequence of ATR/ATRIP (Q8WXE1 whole entry partner): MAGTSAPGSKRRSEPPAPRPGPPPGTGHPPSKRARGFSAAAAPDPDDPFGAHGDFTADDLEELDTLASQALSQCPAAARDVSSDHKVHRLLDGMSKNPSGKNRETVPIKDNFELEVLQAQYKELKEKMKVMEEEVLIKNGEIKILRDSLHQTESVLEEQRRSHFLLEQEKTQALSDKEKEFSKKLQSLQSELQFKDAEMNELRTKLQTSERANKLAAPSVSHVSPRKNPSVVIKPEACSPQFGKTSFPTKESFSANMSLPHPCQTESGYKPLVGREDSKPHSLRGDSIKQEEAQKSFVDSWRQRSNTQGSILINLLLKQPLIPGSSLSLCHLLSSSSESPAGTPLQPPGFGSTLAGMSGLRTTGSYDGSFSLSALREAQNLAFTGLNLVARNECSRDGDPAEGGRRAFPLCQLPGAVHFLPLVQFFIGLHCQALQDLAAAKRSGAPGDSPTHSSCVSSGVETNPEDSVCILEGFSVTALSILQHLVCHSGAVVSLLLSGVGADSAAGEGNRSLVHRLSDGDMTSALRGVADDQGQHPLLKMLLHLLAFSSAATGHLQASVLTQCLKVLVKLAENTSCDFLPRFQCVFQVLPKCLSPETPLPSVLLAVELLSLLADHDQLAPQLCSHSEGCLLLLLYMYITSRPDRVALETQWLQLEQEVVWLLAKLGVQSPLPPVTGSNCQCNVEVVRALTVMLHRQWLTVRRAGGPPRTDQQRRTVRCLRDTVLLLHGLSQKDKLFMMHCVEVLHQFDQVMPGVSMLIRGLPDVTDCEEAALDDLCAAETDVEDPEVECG

Row | SMILES | IC50 (ATR/ATRIP) [µM] | IC50 [1] [µM]
1 | Cc1ccc(-c2cc(N3CCOC[C@H]3C)nc3c(-c4cc(C)n[nH]4)n[nH]c23)cn1 [Compound 3, (3R)-3-Methyl-4-[3-(3-methyl-1H-pyrazol-5-yl)-7-(6-methylpyridin-3-yl)-1H-pyrazolo[4,3-b]pyridin-5-yl]morpholine] | 0.0009 | 0.01 to 0.1
2 | C[C@@H]1COCCN1c1cc(-c2ccc(S(C)(=N)=O)cc2)c2c(n1)c(-c1cc[nH]n1)nn2C (stereo partly drawn) [Compound 6, Imino(methyl)(4-{1-methyl-5-[(3R)-3-methylmorpholin-4-yl]-3-(1H-pyrazol-3-yl)-1H-pyrazolo[4,3-b]pyridin-7-yl}phenyl)-lambda6-sulfanone] | 0.0089 | 0.1 to 1
3 | Cc1nc([S@+](C)[O-])ccc1-c1cc(N2CCOC[C@H]2C)nc2c(-c3cc[nH]n3)nn(C)c12 [Compound 9, (3R)-4-(7-{6-[(S)-Methanesulfinyl]-2-methylpyridin-3-yl}-1-methyl-3-(1H-pyrazol-3-yl)-1H-pyrazolo[4,3-b]pyridin-5-yl)-3-methylmorpholine] | 0.0041 | 0.01 to 0.1
4 | Cc1nc([S@@+](C)[O-])ccc1-c1cc(N2CCOC[C@H]2C)nc2c(-c3cc[nH]n3)nn(C)c12 [Compound 10, (3R)-4-(7-{6-[(R)-Methanesulfinyl]-2-methylpyridin-3-yl}-1-methyl-3-(1H-pyrazol-3-yl)-1H-pyrazolo[4,3-b]pyridin-5-yl)-3-methylmorpholine] | 0.0019 | 0.01 to 0.1
5 | Cc1nc(S(C)(=O)=O)ccc1-c1cc(N2CCOC[C@H]2C)nc2c(-c3cc[nH]n3)n[nH]c12 [Compound 12, 7-(6-Methanesulfonyl-2-methyl-pyridin-3-yl)-5-((R)-3-methyl-morpholin-4-yl)-3-(1H-pyrazol-3-yl)-1H-pyrazolo[4,3-b]pyridine] | 0.0008 | 0.1 to 1
6 | Cc1cc(-c2n[nH]c3c(-c4ccc(S(C)(=O)=O)nc4C)cc(N4CCOC[C@H]4C)nc23)[nH]n1 [Compound 13, (3R)-4-[7-(6-Methanesulfonyl-2-methylpyridin-3-yl)-3-(3-methyl-1H-pyrazol-5-yl)-1H-pyrazolo[4,3-b]pyridin-5-yl]-3-methylmorpholine] | 0.0014 | 0.1 to 1
7 | Cc1ccc(-c2cc(N3CCOC[C@H]3C)nc3c(-c4cc[nH]n4)n(C)nc23)cn1 [Compound 14, 2-Methyl-5-((R)-3-methyl-morpholin-4-yl)-7-(6-methyl-pyridin-3-yl)-3-(1H-pyrazol-3-yl)-2H-pyrazolo[4,3-b]pyridine] | 0.099 | 1 to 10
8 | C[C@@H]1COCCN1c1cc(-c2ccnc3[nH]ccc23)c2nn(C)c(-c3cc[nH]n3)c2n1 [Compound 16, 2-Methyl-5-((R)-3-methyl-morpholin-4-yl)-3-(1H-pyrazol-3-yl)-7-(1H-pyrrolo[2,3-b]pyridin-4-yl)-2H-pyrazolo[4,3-b]pyridine] | 0.067 | 1 to 10
9 | Cc1cc(S(C)(=O)=O)ncc1-c1cc(N2CCOC[C@H]2C)nc2c(-c3cc[nH]n3)n(C)nc12 [Compound 21, 7-(6-Methanesulfonyl-4-methyl-pyridin-3-yl)-2-methyl-5-((R)-3-methyl-morpholin-4-yl)-3-(1H-pyrazol-3-yl)-2H-pyrazolo[4,3-b]pyridine] | 0.51 | 
10 | Cc1ccnc(C)c1-c1cc(N2CCOC[C@H]2C)nc2c(-c3cc[nH]n3)nn(C)c12 [Compound 22, 7-(2,4-Dimethyl-pyridin-3-yl)-1-methyl-5-((R)-3-methyl-morpholin-4-yl)-3-(1H-pyrazol-3-yl)-1H-pyrazolo[4,3-b]pyridine] | 0.0033 | 0.1 to 1
11 | Cc1cnccc1-c1cc(N2CCOC[C@H]2C)nc2c(-c3cc[nH]n3)nn(C)c12 [Compound 23, 1-Methyl-5-((R)-3-methyl-morpholin-4-yl)-7-(3-methyl-pyridin-4-yl)-3-(1H-pyrazol-3-yl)-1H-pyrazolo[4,3-b]pyridine] | 0.001 | 0.01 to 0.1
12 | C[C@@H]1COCCN1c1cc(O)c2c(n1)c(-c1ccn[nH]1)nn2C [Compound 45, 1-Methyl-5-((R)-3-methyl-morpholin-4-yl)-3-(2H-pyrazol-3-yl)-1H-pyrazolo[4,3-b]pyridin-7-ol] | 1.8 | 
13 | C[C@@H]1COCCN1c1cc([C@H]2CCOC2)c2c(n1)c(-c1ccn[nH]1)nn2C [Compound 72, 1-Methyl-5-((R)-3-methyl-morpholin-4-yl)-3-(2H-pyrazol-3-yl)-7-(R)-tetrahydro-furan-3-yl-1H-pyrazolo[4,3-b]pyridine] |  | 0.01 to 0.1
14 | Cc1nc(S(C)(=O)=O)ccc1-c1cc(N2CCOC[C@H]2C)nc2c(-c3cc(C(F)(F)F)n[nH]3)nn(C)c12 [Compound 74, (3R)-4-[7-(6-Methanesulfonyl-2-methylpyridin-3-yl)-1-methyl-3-[3-(trifluoromethyl)-1H-pyrazol-5-yl]-1H-pyrazolo[4,3-b]pyridin-5-yl]-3-methyl-morpholine] | 0.017 | 

The next lines start with the values.

Row | IC50 (ATR/ATRIP) [µM] | IC50 [1] [µM] | SMILES
15 |  | 0.01 to 0.1 | C[C@@H]1COCCN1c1cc(C2=CCSCC2)c2c(n1)c(-c1ccn[nH]1)nn2C [Compound 79, (3R)-4-[7-(3,6-Dihydro-2H-thiopyran-4-yl)-1-methyl-3-(1H-pyrazol-5-yl)-1H-pyrazolo[4,3-b]pyridin-5-yl]-3-methylmorpholine]
16 |  | 0.1 to 1 | C[C@@H]1COCCN1c1cc(C2=CC[S+]([O-])CC2)c2c(n1)c(-c1ccn[nH]1)nn2C (stereo partly drawn) [Compound 80, 4-[1-Methyl-5-[(3R)-3-methylmorpholin-4-yl]-3-(1H-pyrazol-5-yl)-1H-pyrazolo[4,3-b]pyridin-7-yl]-3,6-dihydro-2H-1lambda4-thiopyran-1-one]
17 |  | 0.1 to 1 | C[C@@H]1COCCN1c1cc(C2CCS(=O)(=O)CC2)c2c(n1)c(-c1ccn[nH]1)nn2C [Compound 82]
18 |  | 1 to 10 | C[C@@H]1COCCN1c1ccc2c(n1)c(-c1cc[nH]n1)nn2Cc1cccnc1 [Compound 83, (3R)-3-Methyl-4-[3-(1H-pyrazol-3-yl)-1-[(pyridin-3-yl)methyl]-1H-pyrazolo[4,3-b]pyridin-5-yl]morpholine]
19 |  | 0.01 to 0.1 | Cc1c(-c2cc(N3CCOC[C@H]3C)nc3c(-c4cc[nH]n4)nn(C)c23)nnn1C [Compound 84, (3R)-4-[7-(1,5-Dimethyl-1H-1,2,3-triazol-4-yl)-1-methyl-3-(1H-pyrazol-3-yl)-1H-pyrazolo[4,3-b]pyridin-5-yl]-3-methylmorpholine]
20 |  | 1 to 10 | C[C@@H]1COCCN1c1ccc2c(n1)c(-c1cc[nH]n1)nn2Cc1ccccn1 [Compound 88, (3R)-3-Methyl-4-[3-(1H-pyrazol-3-yl)-1-[(pyridin-2-yl)methyl]-1H-pyrazolo[4,3-b]pyridin-5-yl]morpholine]

— patent US12371430B2, “5-morpholin-4-yl-pyrazolo[4,3-b]pyridine derivatives” (Merck Patent GmbH, priority 2018, dated 2025)
